Results as given in patent publication US10022395B2 (UNIWERSYTET LÓDZKI, priority 2012, dated 2018).
Where “and” joins values, the source holds several entries; their conditions need not be identical. Identical values can stand only once.

Legend:
[1] = system: CLL cells (leukemic lymphocytes, MNCs); test: Mitochondrial membrane potential (CMXRos / anti-glycophorin A-FITC, flow cytometry); format: cell-based, human; details: for mean percentage of cells with lower mitochondrial potential (ΔΨm^low/Gly-A^−): 1.6 μM
Source text: Mitochondrial membrane potential is an early indicator of apoptosis. CMXRos, i.e. Chloromethyl-X-rosamine (the reagent's name by Mito Tracker Red CMXRos, Molecular Probes, USA), and a monoclonal antibody to glycophorin A conjugated with FITC (the reagent's name of Anti-Glycophorin A FITC by Dako, Denmark) were used for its assessment. CMXRos is a lipophilic cationic dye that accumulates in the mitochondrial matrix of viable cells when there is an electronegative load on the inner surface of the mitochondrial membrane. This asymmetric location of protons along the inner mitochondrial membrane leads to a high mitochondrial membrane potential (ΔΨm) in living cells. A decreased ΔΨm is one of the first symptoms of apoptosis, and in effect lowering of the mitochondrial uptake of CMXRos.
The stock CMXRos solution was prepared by dilution of the substance supplied by the manufacturer in 94 μl. DMSO (dimethylsulphoxide), and stored at […]. Then working solution was prepared also using DMSO (1:10) and stored at 4° C. Mononuclear cells, i.e. leukemic lymphocytes, at 1×10^6 MNCs/ml concentration, were incubated with CMXRos (2.5 μl working solution in 500 μl RPMI 1640 medium) at 37° C. for 30 minutes. […] The samples were next measured using flow cytometry. The percentage of cells not bound to anti-glycophorin A-FITC (ΔΨm^low/GIy-A^− cells), with low mitochondrial potential, was calculated.
All fluorescence measurements were performed by a flow cytometer FACSCalibur (Becton Dickinson, USA) equipped with an argon laser 488nm and computer program CeliQuestPro (Becton Dickinson, USA). Each time 10 000cells were evaluated. The fluorescence was measured using standard emission filters: green—FL1 (wavelength λ=530±20 nm) and red—FL3 (λ>600 nm).

CLL cells (MEC-1) = test: Annexin-V / propidium iodide apoptosis test with 25%, 30%, 40%, 45% maltotriose dendrimers and FA; format: cell-based, human; details: 1.6 μM

Row | Compound | mean percentage of cells with lower mitochondrial potential (ΔΨm^low/Gly-A^−) ([1]; 24 h) [%] | mean percentage of cells with lower mitochondrial potential (ΔΨm^low/Gly-A^−) ([1]; 48 h) [%] | Ann+ IP+ (late apoptosis), mean percentage of cells (CLL cells (MEC-1); 24 h) | Ann+ IP− (early apoptosis), mean percentage of cells (CLL cells (MEC-1); 24 h) | CAI (compensating apoptotic index) (CLL cells (MEC-1); 24 h) | Ann− IP+ (necrosis), mean percentage of cells (CLL cells (MEC-1); 48 h) | CAI (compensating apoptotic index) (CLL cells (MEC-1); 48 h) | apoptosis-inducing action (mitochondrial potential) ([1]; 10 μg/ml)
1 | Nc1nc(F)nc2c1ncn2[C@@H]1O[C@H](CO)[C@@H](O)[C@@H]1O [FA, fludarabine] | 52.05 | 74.49 | 6.51% and 10.83% and 6.50% | 3.82% and 3.98% and 3.77% | 1.87% and 7.35% and 4.40% | 22.82% and 15.00% and 20.27% | 6.98% and 7.80% and 12.83% | –
2 | rituximab | – | – | – | – | – | – | – | apoptosis-inducing action in order of spontaneous apoptosis
